{
  "source": "patent US11826372B2",
  "about": "“Combinations including ABX196 for the treatment of cancer” (ABIVAX, priority 2016, dated 2023)",
  "key": {"[1]": {"test_system": "MBT-2 Bladder Cancer", "quoted_text": "ABX196 was administered at the dose of 100 ng per mouse. The anti-PD-1 antibody was administered at the dose of 10 mg/kg.\nMBT-2 tumors were induced by subcutaneous injection of 1×10^6 cells in 200 μL of RPMI 1640 into the right flank of sixty-eight (68) female animals.\nThe treatment started when the tumors reached a mean volume of 80-120 mm^3. […] A statistical test (analysis of variance, ANOVA) was performed to test for homogeneity between groups. The treatment schedule was as follows: • Animals from group 1 received an IV injection of ABX196 vehicle and an IP injection of anti-PD-1 antibody vehicle, • Animals from group 2 received an IV injection of 100 ng of ABX196, • Animals from group 3 received twice weekly administrations of anti-PD-1 antibody, • Animals from group 4 received an IV injection of 100 ng of ABX196 and twice weekly administrations of anti-PD-1 antibody.\nThe viability and behavior were recorded every day. Body weights were measured twice a week. The length and width of the tumor were measured twice a week with calipers and the volume of the tumor was estimated by the formula:\nAll statistical analyses were performed using Vivo Manager® software (Biosystemes, Couternon, France). Statistical analysis of mean body weights, MBWC, mean tumor volumes at randomization, mean tumor volumes V, mean times to reach V and mean tumor doubling times were performed using ANOVA. Pairwise tests were performed using the Bonferroni/Dunn correction in case of significant ANOVA results. The log-Rank (Kaplan-Meier) test was used to compare the survival curves. A p value <0.05 was considered as significant."}, "[2]": {"test_system": "CT-26 Colorectal Cancer", "assay": "Antitumor activity of ABX196 alone or with anti-PD-1 antibody in mice bearing subcutaneous CT-26 colorectal cancer (Example 6)", "type": "in vivo, mouse", "details": "CT-26 in BALB/c mice; ABX196 100 ng IV Q1Dx1; anti-PD-1 Ab 10 mg/kg IP TWx2", "procedure": "Body weights were measured twice a week."}, "[3]": {"test_system": "Melanoma B16F10 tumor", "details": "for T/C (antitumor activity index): B16F10 in C57BL/6 mice, ABX196 100 ng i.v. or 10 ng i.t. Day 10, anti-PD-1 mAb 100 μg i.p. Days 6, 9, 12, 15 and 18", "quoted_text": "The study was performed on a syngeneic in vivo melanoma B16F10 tumor-bearing mouse model. B16F10 tumor cells were subcutaneously inoculated in immuno-competent C57BL/6 mice.\nMelanoma B16F10 tumor cells were subcutaneously inoculated at day 0 by injecting cells in the flank of 8-10 weeks-old female C57BL/6 mice, and animals were then randomly assigned into control (vehicle PBS-treated) and treatments groups.\nFor the anti-PD-1 antibodies treatment, mice were intraperitoneally (IP) injected with anti-PD-1 antibodies at Day 6, 9, 12, 15 and 21. Furthermore, ABX196 was administered at 1 dose, intravenously or intratumorally, with one administration at Day 10 when mean of tumor size reached 100 mm^3.\nThe animal pharmacological groups for anti-tumor efficacy assessment were organized as such: • Control vehicle-treated group (PBS according to anti-PD-1 treatment schedule) • Anti-PD-1-treated group (at 1 dose, intraperitoneal administration) • ABX196-treated group (at 1 dose, Intravenous (iv) administration at Day10) • Combination-treated group (ABX196 at 1 dose, Intravenous (iv) administration at Day10 in combination with anti-PD-1 antibodies at 1 dose, intraperitoneal (ip) administration) • ABX196-treated group (at 1 dose, Intratumoral (it) administration at Day10) • Combination-treated group (ABX196 at 1 dose, Intratumoral (it) administration at Day10 in combination with anti-PD-1 antibodies at 1 dose, intraperitoneal (ip) administration)\nTumor volume and body weight of the animals were measured and recorded three times per week. A tumor volume exceeding 2000 mm3 or a weight loss greater than 15% relative to the initial weight of the animal were considered as endpoints.\nB16F10 cells were implanted subcutaneously in the right flank of C57BL/6 immunocompetent mice (8 week-old female). The implantation procedure was as follows (all steps were carried out under sterile laminar flow conditions):\nMice (body weight around 20 g) were anesthetized with an intraperitoneal injection of 90 μL of anesthetic (ie 1.5 mg/Kg Ketamine and Xylazine 150 μg/Kg). The cells to be implanted were resuspended in sterile PBS and the volume needed to implant was loaded in 1 ml syringe with a needle (1,000,000 cells/100 μL).\nAnti-PD-1 monoclonal antibodies (a-PD-1) treatment schedule was applied, at 100 μg by i.p. injection. Treatment was repeated 4 times, at Days 6, 9, 12, 15 and 18.\nABX196 was administered at Day 10 either: • by intravenous (i.v) injection at the dose of 100 ng per mouse; or • by intratumoral (i.t) injection at the dose of 10 ng per mouse\nStarting from day 6 after B16F10 cell inoculation, all experimental animal groups were monitored 3 times per week over a 4 weeks period for the following parameters: • Tumor size: measured by physical examination, 3 times per week, • Body weight: monitored 3 times per week, and • Survival: represented in a Kaplan-Meier plot."}, "[4]": {"test_system": "Hepa 1-6 Hepatocarcinoma", "details": "for Fraction alive / Fraction without detectable metastasis: Day 61, orthotopic Hepa 1-6 in C57BL/6 mice; for Tumor invasion of the liver at day 20, Dunn's multiple comparisons test vs Vehicle: Mean rank diff.: ABX196 100 ng IV D5, sorafenib 100 mg/kg PO Q1Dx21, doxorubicin 12 mg/kg IV D5, anti-PD-1 10 mg/kg IP D7/D10/D14/D17", "quoted_text": "Tumor invasion was evaluated semi-quantitively by a visual evaluation of the percentage of tumor in the entire liver.\nOne million (1×106) of tumor cells in 50 μL of RPMI 1640 medium were transplanted via intra-splenic injection into 100 C57BL/6 mice. Briefly, a small left subcostal flank incision was made. Spleen was exteriorized. The spleen was exposed on the sterile gauze pad, and injected under visual control with the cell suspension with a 27-gauge needle. After the cell inoculation, the spleen was excised. The day of tumor cell injection was considered as DO.\nThe treatment started at D5. Ninety-nine animals (99) out of one hundred (100) were randomized according to their individual body weight into 3 groups of 13 animals and 5 groups of 12 animals using Vivo Manager® software (Biosystemes, Couternon, France). A statistical test (analysis of variance, ANOVA) was performed to test for homogeneity between groups. The treatment schedule was as follows: • Animals from group 1 received one IV injection of ABX196 vehicle at day 5, • Animals from group 2 received one daily PO administration of sorafenib at 100 mg/kg/adm for 21 consecutive days, starting at day 5, • Animals from group 3 received one IV injection of 100 ng of ABX196 on day 5 and one daily PO administration of sorafenib at 100 mg/kg/adm for 21 consecutive days, starting at day 5, • Animals from group 4 received one IV injection of Doxorubicin at 12 mg/kg on day 5, • Animals from group 5 received one IV injection of 100 ng of ABX196 and one IV injection of Doxorubicin at 12 mg/kg on day 5, • Animals from group 6 received 4 IP administrations of anti-PD-1 antibody on day 7, 10, 14 and 17 (Twice weekly×2), • Animals from group 7 received one IV injection of 100 ng of ABX196 on day 5 and 4 IP administrations of anti-PD-1 antibody on day 7, 10, 14 and 17 (Twice weekly×2).\nAt D19 and D20, 5 mice per group from group 1 to 8 were imaged (40 animals per day). A semi-quantitative analysis was then performed.\nAt the time of final mice termination (around D60), liver was weighted. The number of metastases was evaluated macroscopically and the localization, the appearance (shape, colour, consistency) and the size of each of them was recorded. Macroscopic photography of the liver was taken.\nThe treatment efficacy was assessed in terms of the effects of the test substance on the tumor volumes of treated animals relative to control animals. The following evaluation criteria of antitumor efficacy were determined: • Individual and/or mean (or median) measurement at D19-20 of tumor invasion within the liver using MRI imaging, • Measurement of circulating a-Fetoprotein in the plasma at D22, • Liver weight measured at termination, • Survival curves, • Median survival times.\nStatistical analysis of tumor invasion between vehicle and each group at day 20.\nPair wise comparison with Dunn's test"}, "[5]": {"test_system": "B16-F10 melanoma", "quoted_text": "Tumor was induced by subcutaneous injection of 1×10^6 of B16-F10 cells in 200 μL of PBS buffer into the right flank of 95 C57BL/6 female animals. The day of tumor cell injection in the right flank was considered as D0.\nOn D3, 90 out of ninety-five 95 were then randomized according to their body weight into 6 groups each of 15 animals (groups 1-6).\nThe viability and behavior were recorded every day. Body weights were measured twice a week until injection of tumor cells then thrice a week. The length and width of the tumor were measured thrice a week with calipers and the volume of the tumor was estimated by the formula:\nThe treatment efficacy was assessed in terms of the effects of the vaccine composition on the tumor volumes of treated animals relative to control animals. The following evaluation criteria of antitumor efficacy was determined using Vivo Manager® software (Biosystemes, Couternon, France): • Individual, mean and median tumor volumes were provided, • The number of tumor-free mice was provided.\nMice survival was also monitored and used as an efficacy parameter. Survival curves were drawn.\nPercent treated/control (T/C (%) index) is calculated by dividing the median treated tumor volume by the median control tumor volume on day 14 and multiplying by 100. A T/C % equal or less than 42% is considered significant antitumor activity by the drug evaluation branch of the division of cancer treatment (NCI).\nTumor growth inhibition is also reflective to the antitumor effectiveness and is calculated following the formula:\nMean tumor volumes at defined times were analyzed with the GrapadPrism Software (Version 6.07) using the Kruskall-Wallis test for all the treatments. A significant difference between all treatments (P<0.05) was followed by pairwise comparisons using the Dunn's multiple comparison test. Survival was analyzed using the Log-rank (Mantel-Cox) test with GrapadPrism Software (Version 6.07). A significant difference between all treatments (P<0.05) was followed by pairwise comparisons using the Log-rank (Mantel-Cox) test."}, "[6]": {"details": "MBT-2 in C3H/HeJ mice, ABX196 100 ng IV Q1Dx1, anti-PD-1 Ab 10 mg/kg IP TWx2"}, "[7]": {"details": "Unpaired t test two tailed, with Welch's correction, listed as ABX196 i.t"}, "[8]": {"details": "Unpaired t test two tailed, with Welch's correction, listed as ABX196 i.v"}},
  "note": "Like-named read-outs stand apart in the source and are kept apart here.",
  "data": [
    {"smiles": "CCCCCCCCCCCCCCCCCCCCCCCC(=O)N[C@@H](CO[C@H]1O[C@H](CNC(C)=O)[C@H](O)[C@H](O)[C@H]1O)[C@H](O)[C@H](O)CCCCCCCCCCCCCC", "note": "[ABX196]", "values": [
      {"measurement": "Statistical analysis of mice survival, pairwise p vs ABX196 + Anti-PD-1", "setting": "[1]; MBT-2, Log-Rank (Mantel-cox) test, vs ABX196 + Anti-PD-1", "value": "***0.0002"},
      {"measurement": "Statistical analysis of mice survival, pairwise p vs Vehicle", "setting": "[1]; MBT-2, Log-Rank (Mantel-cox) test, vs Vehicle", "value": "*0.02"},
      {"measurement": "Median Survival", "setting": "[1]; MBT-2 bearing mice, ABX196 100 ng IV, anti-PD-1 Ab 10 mg/kg IP TWx2", "value": 27, "unit": "days"},
      {"measurement": "T/C (antitumor activity index)", "setting": "[1]; [6]", "value": 57},
      {"measurement": "TGI (antitumor activity index)", "setting": "[1]; [6]", "value": 43},
      {"measurement": "T/C (antitumor activity index)", "setting": "[2]", "value": 51},
      {"measurement": "TGI (antitumor activity index)", "setting": "[2]", "value": 72},
      {"measurement": "Effect on tumor volume (in words)", "setting": "[3]; B16F10 bearing mice, FIGS. 5 and 6", "value": "transient effect"},
      {"measurement": "T/C (antitumor activity index)", "setting": "[3]; listed as ABX196 it", "value": 53},
      {"measurement": "T/C (antitumor activity index)", "setting": "[3]; listed as ABX196 iv", "value": 51},
      {"measurement": "Mean Tumor Volume at Day 17 (p value) vs ABX196 i.v", "setting": "[3]; Unpaired t test two tailed, with Welch's correction, vs ABX196 i.v", "value": 0.0554},
      {"measurement": "Mean Tumor Volume at Day 17 (p value) vs Vehicle", "setting": "[3]; [7]", "value": 0.8942},
      {"measurement": "Mean Tumor Volume at Day 17 (p value) vs Vehicle", "setting": "[3]; [8]", "value": 0.2838},
      {"measurement": "Mean Tumor Volume at Day 17 (p value) vs αPD-1 + ABX196 i.v", "setting": "[3]; Unpaired t test two tailed, with Welch's correction, vs αPD-1 + ABX196 i.v", "value": "<0.0001"},
      {"measurement": "Mean Tumor Volume at Day 17 (p value) vs αPD-1", "setting": "[3]; [7]", "value": 0.2031},
      {"measurement": "Mean Tumor Volume at Day 17 (p value) vs αPD-1", "setting": "[3]; [8]", "value": 0.7081},
      {"measurement": "Mean Tumor Volume at Day 17 (Significativity) vs αPD-1 + ABX196 i.v", "setting": "[3]; vs αPD-1 + ABX196 i.v", "value": "**** (****p < 0.0001)"}
    ]},
    {"smiles": "COc1cccc2c1C(=O)c1c(O)c3c(c(O)c1C2=O)C[C@@](O)(C(=O)CO)C[C@@H]3O[C@H]1C[C@H](N)[C@H](O)[C@H](C)O1", "note": "[Doxorubicin, doxorubicin]", "values": [
      {"measurement": "Fraction alive", "setting": "[4]", "value": "9/12"},
      {"measurement": "Fraction without detectable metastasis", "setting": "[4]", "value": "9/12"},
      {"measurement": "Tumor invasion of the liver at day 20, Dunn's multiple comparisons test vs Vehicle: Mean rank diff.", "setting": "[4]; MRI, day 20", "value": 28.52},
      {"measurement": "Tumor invasion of the liver at day 20, Dunn's multiple comparisons test vs Vehicle: Significant?", "setting": "[4]; MRI, day 20, vs Vehicle", "value": "Yes"},
      {"measurement": "Tumor growth in comparison to the vehicle-treated group (in words)", "setting": "[5]; B16-F10 tumors in C57BL/6 mice, FIGS. 1 and 3", "value": "weak and non-significant"},
      {"measurement": "Median Survival", "setting": "[5]; C57BL/6 mice, s.c. B16-F10 (1×10^6 cells), CL II-TRP2/ABX196 50 μg/1 μg IV D3, anti-PD-1 Ab 10 mg/kg IP D10/D14/D17/D21, doxorubicin 12 mg/kg IV D7", "value": 21, "unit": "days"},
      {"measurement": "Statistical analysis of tumor growth at D17, pairwise comparison with TRP2-ABX196", "setting": "[5]; D17, Dunn's multiple comparison test, vs TRP2-ABX196", "value": "ns"},
      {"measurement": "Statistical analysis of tumor growth at D17, pairwise comparison with TRP2-ABX196 + Doxo.", "setting": "[5]; D17, Dunn's multiple comparison test, vs TRP2-ABX196 + Doxo.", "value": "* (*P < 0.05)"},
      {"measurement": "Statistical analysis of tumor growth at D17, pairwise comparison with TRP2-ABX196 + α-PD-1", "setting": "[5]; D17, Dunn's multiple comparison test, vs TRP2-ABX196 + α-PD-1", "value": "ns"},
      {"measurement": "Statistical analysis of tumor growth at D17, pairwise comparison with Vehic.", "setting": "[5]; D17, Dunn's multiple comparison test, vs Vehic.", "value": "ns"},
      {"measurement": "Statistical analysis of tumor growth at D17, pairwise comparison with α-PD-1", "setting": "[5]; D17, Dunn's multiple comparison test, vs α-PD-1", "value": "ns"},
      {"measurement": "Statistical analysis of tumor growth at D19, pairwise comparison with TRP2-ABX196", "setting": "[5]; D19, Dunn's multiple comparison test, vs TRP2-ABX196", "value": "ns"},
      {"measurement": "Statistical analysis of tumor growth at D19, pairwise comparison with TRP2-ABX196 + Doxo.", "setting": "[5]; D19, Dunn's multiple comparison test, vs TRP2-ABX196 + Doxo.", "value": "* (*P < 0.05)"},
      {"measurement": "Statistical analysis of tumor growth at D19, pairwise comparison with TRP2-ABX196 + α-PD-1", "setting": "[5]; D19, Dunn's multiple comparison test, vs TRP2-ABX196 + α-PD-1", "value": "ns"},
      {"measurement": "Statistical analysis of tumor growth at D19, pairwise comparison with Vehic.", "setting": "[5]; D19, Dunn's multiple comparison test, vs Vehic.", "value": "ns"},
      {"measurement": "Statistical analysis of tumor growth at D19, pairwise comparison with α-PD-1", "setting": "[5]; D19, Dunn's multiple comparison test, vs α-PD-1", "value": "ns"},
      {"measurement": "Statistical analysis of mice survival, pairwise P vs α-PD-1 (row head as printed)", "setting": "[5]; Log-rank (Mantel-Cox) test, listed as printed as α-PD-1", "value": 0.624},
      {"measurement": "Statistical analysis of mice survival, pairwise P vs Vehicle", "setting": "[5]; Log-rank (Mantel-Cox) test, vs Vehicle", "value": 0.0015},
      {"measurement": "T/C (anti-tumor activity index)", "setting": "[5]; day 14, median treated / median control tumor volume ×100, B16-F10 in C57BL/6 mice", "value": 56.3, "unit": "%"}
    ]},
    {"smiles": "CNC(=O)c1cc(Oc2ccc(NC(=O)Nc3ccc(Cl)c(C(F)(F)F)c3)cc2)ccn1", "note": "[Sorafenib]", "values": [
      {"measurement": "Fraction alive", "setting": "[4]", "value": "5/13"},
      {"measurement": "Fraction without detectable metastasis", "setting": "[4]", "value": "5/13"},
      {"measurement": "Tumor invasion of the liver at day 20, Dunn's multiple comparisons test vs Vehicle: Mean rank diff.", "setting": "[4]; MRI, day 20", "value": 8.644},
      {"measurement": "Tumor invasion of the liver at day 20, Dunn's multiple comparisons test vs Vehicle: Significant?", "setting": "[4]; MRI, day 20, vs Vehicle", "value": "No"},
      {"measurement": "Tumor invasion of the liver at day 20, Dunn's multiple comparisons test vs Vehicle: Summary", "setting": "[4]; MRI, day 20, vs Vehicle", "value": "ns"}
    ]}
  ]
}
